Source: patent US8222004B2, “Diagnosis and treatment of autism using CD38” (National University Corporation Kanazawa University, priority 2006, dated 2012)

Key:
[1] = biological target: ADP-ribosyl cyclase activity (Homo sapiens, UniProt P28907, R140W); settings: mutated CD38 found in human diabetes; cited from earlier work
[2] = tested on: pituitary nerve terminals; test: Oxytocin release from isolated pituitary nerve terminals (in vitro); type: cell-based, mouse
Description: (§1) Cell bodies of hypothalamic neurons and nerve terminals were isolated according to a previously described method (OuYang, W., et al., Brain Res. 1024, 203-21.1 (2004)), then washed with a Locke solution, and homogenized in a solution containing sucrose, 270; HEPES-Tris, 10; and K-EGTA, 0.01 (in mM, pH 7.25). The homogenates were transferred to Petri dishies and left standing for 5 to 8 minutes.
Isolated cells and nerve terminals were left standing for 6 hours, and then, an experiment was started. The specimens were perfused for 45 minutes, and the perfusate was collected at last 5-minute intervals three times in total for control concentration measurement. Subsequently, the specimens were perfused for additional 5 minutes with Locke solution containing 70 mmol of KC1, and oxytocin concentrations in the obtained perfusates were determined using an oxytocin determination kit and considered as concentrations of oxytocin released by depolarization stimulation.

isolated nerve terminals = test: Intracellular Ca2+ concentration in isolated nerve terminals (Oregon Green); type: cell-based, mouse; settings: wild-type mice; 50 mM KCl
Description: as §1
The cells were incubated with Oregon Green for 1 hour to incorporate the dye into the cells. Subsequently, a fluorescence intensity of the cells was measured using an excitation wavelength of 485 nm and a filter of 538 nm. A fluorescence microspectrophotometer and a condenser with an ARGUS-50 CCD camera were used for the measurement.

[3] = tested on: postpartum female CD38−/− mice; test: Maternal behaviors of postpartum female mice (pup retrieval, crouching) after subcutaneous peptide administration; type: in vivo, mouse; settings: once, 1 to 10 ng/kg
Description: Then, each mother mouse was put back at a corner of a cage, and the pups were placed at remaining 3 corners. In this state, behaviors of the mother mouse were observed. A latency to retrieve each pup and a duration of crouching over 3 pups were also measured.
According to a previously described method (Boccia, M. M., et al., Neurobiol. Learn. Memory 69, 136-146 (1998)), oxytocin (OT) or vasopressin (AVP) dissolved in 0.05 M acetic acid was adjusted to 0.01 μM with saline, and this solution was subcutaneously administered once at a dose of 1 to 10 ng/kg body weight […] to the postpartum female CD38−/− mice (N=6 to 8) described above and young male mice (N=10 per group).

[4] = tested on: male CD38−/− and wild-type mice; test: Social memory of male mice (olfactory investigation time on repeated encounters); type: in vivo, mouse; settings: subcutaneous, once, 1 to 10 ng/kg; for social memory (olfactory investigation): young male CD38−/− mice
students = settings: 194 students, intranasal administration, versus placebo; cited from earlier work

Sequence of ADP-ribosyl cyclase activity (P28907 whole entry R140W): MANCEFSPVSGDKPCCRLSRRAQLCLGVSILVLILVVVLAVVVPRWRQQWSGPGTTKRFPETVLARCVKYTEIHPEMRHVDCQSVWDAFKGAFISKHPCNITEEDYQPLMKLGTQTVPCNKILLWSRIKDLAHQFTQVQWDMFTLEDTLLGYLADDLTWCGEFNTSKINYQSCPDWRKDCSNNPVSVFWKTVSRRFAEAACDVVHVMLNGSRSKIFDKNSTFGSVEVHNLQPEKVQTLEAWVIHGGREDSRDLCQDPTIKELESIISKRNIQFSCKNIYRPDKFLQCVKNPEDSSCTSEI

## mutated CD38: human CD38 with substitution of tryptophan for arginine at position 140, found in human diabetes
[1]
  ADP-ribosyl cyclase activity relative to normal: about ⅓

## N=c1c2ncn3c2ncn1[C@@H]1O[C@H](COP(=O)(O)OP(=O)(O)OC[C@H]2O[C@@H]3[C@H](O)[C@@H]2O)[C@@H](O)[C@H]1O [cADPR, cyclic ADP-ribose]
[2]; CD38−/− mice, pituitary nerve terminals, 10 μM
  increase of oxytocin release: 2.5 fold
[2]; all the mice, initially stimulated with Ca2+, 10 μM given outside the cells
  oxytocin release from the pituitary nerve terminals: promoted

## Nc1ncnc2c1ncn2[C@@H]1O[C@H](COP(=O)(O)OP(=O)(O)OCC2OC([n+]3cccc(C(=O)[O-])c3)C(O)C2O)[C@@H](O)[C@H]1OP(=O)(O)O (stereo in doubt) [NAADP, nicotinate adenine dinucleotide phosphate]
[2]; all the mice, initially stimulated with Ca2+, 100 nM given outside the cells
  oxytocin release from the pituitary nerve terminals: promoted

## ryanodine
[2]; wild-type mice, 200 μM, high-potassium depolarization
  oxytocin release from the pituitary nerve terminals: decreased to same levels as those in the CD38−/− mice
Isolated nerve terminals
  increase in intracellular Ca2+ concentration: significantly inhibited

## CO/C1=C\C(C)=C\[C@@H](C)[C@@H](O)[C@@H](C)C/C(C)=C/C=C/[C@H](OC)[C@@H]([C@@H](C)[C@@H](O)[C@H](C)[C@@]2(O)C[C@@H](O)[C@H](C)[C@@H](C(C)C)O2)OC1=O [bafilomycin]
[2]; wild-type mice, 2 μM, high-potassium depolarization
  oxytocin release from the pituitary nerve terminals: decreased to same levels as those in the CD38−/− mice

## CC[C@H](C)[C@@H]1NC(=O)[C@H](Cc2ccc(O)cc2)NC(=O)[C@@H](N)CSSC[C@@H](C(=O)N2CCC[C@H]2C(=O)N[C@@H](CC(C)C)C(=O)NCC(N)=O)NC(=O)[C@H](CC(N)=O)NC(=O)[C@H](CCC(N)=O)NC1=O [oxytocin]
[3]
  maternal behaviors (latency to retrieve pups, duration of crouching): recovered to same levels of maternal behaviors as those of the wild-type mice
[4]
  change in behaviors of wild-type mice: no change
  social memory (olfactory investigation): recovered a social memory
students
  investment in an investment game (trust, prosocial behavior): invested more money and more frequently invested a maximum allowable than the placebo group

## NC(=O)CC[C@@H]1NC(=O)[C@H](Cc2ccccc2)NC(=O)[C@H](Cc2ccc(O)cc2)NC(=O)[C@@H](N)CSSC[C@@H](C(=O)N2CCC[C@H]2C(=O)N[C@@H](CCCN=C(N)N)C(=O)NCC(N)=O)NC(=O)[C@H](CC(N)=O)NC1=O [vasopressin]
[4]
  change in behaviors of wild-type mice: no change
  social memory (olfactory investigation): no detectable change

## 8-bromo-cADPR
[2]; wild-type mice, 100 μM, high-potassium depolarization
  oxytocin release from the pituitary nerve terminals: decreased to same levels as those in the CD38−/− mice
Isolated nerve terminals
  increase in intracellular Ca2+ concentration: significantly inhibited
